Measurements from ChEMBL document CHEMBL1128794, “Rational design of irreversible, pseudo-C2-symmetric hiv-1 protease inhibitors” (Bioorg Med Chem Lett, 1995).

How the values were obtained:
[1] = target: Human immunodeficiency virus type 1 protease (Human immunodeficiency virus 1, UniProt Q72874); test: Compound was tested for the inhibition activity against HIV-1 protease
[2] = target: Human immunodeficiency virus type 1 protease (Human immunodeficiency virus 1) (UniProt Q72874); test: Rate of irreversible inactivation of HIV 1 protease by the compound was determined
[3] = target: Human immunodeficiency virus type 1 protease (Human immunodeficiency virus 1) (UniProt Q72874); test: Ratio of inactivation constant (Kina) and inhibition constant (Ki) was determined
SUP-T1 [4] = test: Tested for the inhibitory activity against HIV-1 in Sup T1 cell lines assessed by syncytium formation and reverse transcriptase assay; assay type: functional, cell-based; conditions: Homo sapiens
H9 [5] = test: Tested for the inhibitory activity against HIV-1 in H-9 cell lines assessed by syncytium formation and reverse transcriptase assay; assay type: functional, cell-based; conditions: Homo sapiens
SUP-T1 [6] = test: 50% Cytoxic value against HIV-1 in Sup T1 cell lines was evaluated; assay type: functional, Homo sapiens
H9 [7] = test: Tested for the inhibitory activity against HIV-1 in H-9 and Sup T1 cell lines assessed by syncytium formation and reverse transcriptase assay; assay type: functional, cell-based; conditions: Homo sapiens
H9 [8] = test: 50% Cytoxic value against HIV-1 in H-9 cell lines was evaluated; assay type: functional, Homo sapiens

SMILES	Ki [1]	K inact/Ki [3]	other results
CC(C)[C@H](NC(=O)OCc1ccccc1)C(=O)N[C@@H](Cc1ccccc1)C1OC1[C@H](Cc1ccccc1)NC(=O)[C@@H](NC(=O)OCc1ccccc1)C(C)C (some centres undefined)	75 nM	–	–
O=[N+]([O-])c1ccc(OCC2CO2)cc1 (centres undefined)	–	–	Kina [2]: 0.004 min⁻¹
CC(C)[C@H](NC(=O)OCc1ccccc1)C(=O)NC(C)[C@@H]1O[C@@H]1[C@H](Cc1ccccc1)NC(=O)[C@H](NC(=O)OCc1ccccc1)C(C)C (some centres undefined)	4 nM	667000 M⁻¹ s⁻¹	–
CC(C)[C@H](NC(=O)OCc1ccncc1)C(=O)NC[C@@H]1O[C@@H]1[C@H](Cc1ccccc1)NC(=O)[C@H](NC(=O)OCc1ccncc1)C(C)C	300 nM	5670 M⁻¹ s⁻¹	–
CC(C)[C@H](NC(=O)N(C)Cc1ccccn1)C(=O)NC[C@@H]1O[C@@H]1[C@H](Cc1ccccc1)NC(=O)[C@H](NC(=O)N(C)Cc1ccccn1)C(C)C	16 nM	367000 M⁻¹ s⁻¹	–
CC(C)[C@H](NC(=O)OCc1ccccc1)C(=O)N[C@@H](Cc1ccccc1)[C@H](O)[C@H](O)[C@H](Cc1ccccc1)NC(=O)[C@@H](NC(=O)OCc1ccccc1)C(C)C	< 1 nM	–	–
CC(C)[C@H](NC(=O)OCc1cccnc1)C(=O)NC[C@@H]1O[C@@H]1[C@H](Cc1ccccc1)NC(=O)[C@H](NC(=O)OCc1cccnc1)C(C)C	70 nM	23300 M⁻¹ s⁻¹	–
CC(C)(C)NC(=O)[C@@H]1C[C@@H]2CCCC[C@@H]2CN1C[C@@H](O)[C@H](Cc1ccccc1)NC(=O)[C@H](CC(N)=O)NC(=O)c1ccc2ccccc2n1 [SAQUINAVIR]	–	–	IC50 (SUP-T1 [4]): 20 nM; IC50 (H9 [5]): 20 nM
CC(C)[C@H](NC(=O)OCc1ccccc1)C(=O)NC[C@@H]1O[C@@H]1[C@H](Cc1ccccc1)NC(=O)[C@H](NC(=O)OCc1ccccc1)C(C)C	0.1 nM	2.5e+06 M⁻¹ s⁻¹	IC50 (SUP-T1 [4]): 30 nM; CT50 (SUP-T1 [6]): >100 µM; IC50 (H9 [7]): 30 nM; CT50 (H9 [8]): >100 µM
Cc1cn([C@H]2C[C@H](N=[N+]=[N-])[C@@H](CO)O2)c(=O)[nH]c1=O [ZIDOVUDINE]	–	–	IC50 (SUP-T1 [4]): 50 nM; IC50 (H9 [5]): 50 nM
CC(C)[C@H](NC(=O)N(C)Cc1ccccn1)C(=O)N[C@@H](Cc1ccccc1)[C@@H](O)[C@H](O)[C@H](Cc1ccccc1)NC(=O)[C@@H](NC(=O)N(C)Cc1ccccn1)C(C)C	< 1 nM	–	–
CC(C)[C@H](NC(=O)OCc1ccccn1)C(=O)NC[C@@H]1O[C@@H]1[C@H](Cc1ccccc1)NC(=O)[C@H](NC(=O)OCc1ccccn1)C(C)C	11 nM	383000 M⁻¹ s⁻¹	–
